Here are results for eleven compounds from ChEMBL document CHEMBL1201862, “PubChem BioAssay data set” (2004).

Test systems include RXF 393; BT-549; TK-10; MOLT-4; HT-29; U-251; SF-295; SF-539; Hs-578T; SNB-75; HCT-15; CAKI-1; UO-31; SNB-19; HCC 2998; CCRF-CEM; 786-0; SK-OV-3; A498; RPMI-8226.
Assay in all cases: inhibition of tumour cell growth, NCI panel, 48 h

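Grown in 96-well plates, cells were treated for 48 hours with each compound at five concentrations. Insufficient inhibition: endpoint recorded as highest concentration tested. GI50 = concentration required for 50% inhibition of growth.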 Calls of active or inactive are those of the source. Rule as the data show it: active = GI50 up to about 1.1 µM and inactive = higher.

On to `CC1C(=NO)C(C)C(c2ccccc2)N(N=O)C1c1ccccc1` (stereo not given), for which the GI50 is 17.1 µM (inactive) in the experiment with RXF 393; 22.9 µM (inactive) with BT-549; 24.1 µM (inactive) in the experiment with TK-10; 12.2 µM (inactive) in the experiment on MOLT-4; 17.4 µM (inactive) with HT-29; 17.7 µM (inactive) with U-251. Besides, the GI50 with SF-295 is 13.8 µM (inactive); with SF-539, 13.1 µM (inactive); with Hs-578T, 16.4 µM (inactive); with SNB-75, 25.1 µM (inactive); in the experiment on HCT-15, 16.6 µM; in the experiment on CAKI-1, > 10 µM (inactive). Also, the GI50 in the experiment with UO-31 was 13.3 µM (inactive); with SNB-19 it was 18.3 µM (inactive); in the experiment on HCC 2998, 18.4 µM (inactive); in the experiment on CCRF-CEM it was 28.1 µM (inactive); in the experiment with 786-0 it was 19.6 µM (inactive); with SK-OV-3, 4.72 µM (inactive).
Consider `COc1ccc(C2=C(Cl)C(=O)N(c3ccc(OC)cc3OC)C(=O)C2(Cl)Cl)cc1`, for which the GI50 in the experiment with RXF 393 is 17.9 µM (inactive); in the experiment on BT-549, 18.8 µM (inactive); in the experiment on TK-10, 18.9 µM (inactive); with MOLT-4, 5.07 µM (inactive); in the experiment with HT-29 it was 18.1 µM (inactive); in the experiment with U-251 it was 16.6 µM (inactive). Moreover, the GI50 in the experiment with SF-295 is 24.3 µM (inactive); in the experiment with SF-539 it was 10.4 µM (inactive); in the experiment with Hs-578T it was < 0.01 µM (active); in the experiment on SNB-75, 22.9 µM (inactive); in the experiment with HCT-15 it was 14.2 µM; with CAKI-1 it was 11.9 µM (inactive). The GI50 in the experiment with UO-31 was 14.8 µM (inactive); in the experiment with SNB-19, 56.6 µM (inactive); in the experiment on 786-0 it was 15.6 µM (inactive); in the experiment on SK-OV-3, 47.3 µM (inactive).
For `C[C@H](N)C(=O)Nc1ccc(-c2nc3ccccc3s2)cc1Cl`, the GI50 is 15.1 µM (inactive) with RXF 393; 16.3 µM (inactive) with BT-549; 0.161 µM (active) in the experiment on TK-10; 17.7 µM (inactive) in the experiment on MOLT-4; 16.7 µM (inactive) in the experiment with HT-29; 14.6 µM (inactive) in the experiment with U-251. The GI50 is 16.6 µM (inactive) in the experiment with SF-295; 20.1 µM (inactive) in the experiment with Hs-578T; 16 µM (inactive) with SNB-75; 19.6 µM in the experiment on HCT-15; 10.7 µM (inactive) in the experiment on CAKI-1; 10.7 µM (inactive) with UO-31. In addition, the GI50 with SNB-19 was 16.3 µM (inactive); in the experiment on HCC 2998, 0.56 µM (active); in the experiment with CCRF-CEM, 12 µM (inactive); in the experiment with 786-0 it was 12.5 µM (inactive); in the experiment on SK-OV-3 it was 16.4 µM (inactive).
As to `O=c1oc2ccccc2n1CCN1CCCCC1`, the GI50 with RXF 393, in the experiment on BT-549, with TK-10, with MOLT-4, in the experiment on HT-29 and in the experiment with U-251 was > 100 µM (inactive) throughout. For the same compound, the GI50 was > 100 µM (inactive) with SF-295; > 100 µM (inactive) in the experiment with SF-539; > 100 µM (inactive) with Hs-578T; > 100 µM (inactive) in the experiment on SNB-75; above 100 µM with HCT-15; > 100 µM (inactive) with CAKI-1. The GI50 in the experiment on A498, in the experiment on SNB-19, in the experiment with CCRF-CEM, in the experiment on RPMI-8226, in the experiment with 786-0 and in the experiment on SK-OV-3 was > 100 µM (inactive) each time.
Take `CC[C@]12C=CCN3CCC4(c5cc(/N=N/c6ccc([N+](=O)[O-])cc6)c(OC)cc5N(C)[C@H]4[C@@](O)(C(=O)OC)[C@@H]1OC(C)=O)[C@@H]32` (stereo not given in full): the GI50 is 12.5 µM (inactive) in the experiment with RXF 393; 72.4 µM (inactive) in the experiment with BT-549; 17.2 µM (inactive) in the experiment on TK-10; 3.01 µM (inactive) in the experiment on MOLT-4; 10.4 µM (inactive) in the experiment with HT-29; 11.2 µM (inactive) in the experiment with U-251. Besides, the GI50 was 10.6 µM (inactive) in the experiment with SF-295; 16.8 µM (inactive) in the experiment on SF-539; 18.4 µM (inactive) in the experiment with Hs-578T; 9.48 µM (inactive) in the experiment with SNB-75; 13.5 µM in the experiment on HCT-15; 12.9 µM (inactive) in the experiment with CAKI-1. Moreover, the GI50 in the experiment on UO-31 is 11.2 µM (inactive); in the experiment with A498 it was 14.1 µM (inactive); in the experiment on SNB-19, 26.6 µM (inactive); in the experiment on CCRF-CEM, 1.77 µM (inactive); in the experiment on RPMI-8226, 3.48 µM (inactive); with 786-0, 11.8 µM (inactive). Further, in the experiment on SK-OV-3, the GI50 is 18 µM (inactive).
With `ClCCN1CCC2(CC1)SSC1(CCN(CCCl)CC1)S2`, the GI50 with BT-549 is 35.8 µM (inactive); in the experiment with TK-10 it was 35.9 µM (inactive); in the experiment with MOLT-4, 41.5 µM (inactive); in the experiment with HT-29, 48 µM (inactive); in the experiment on U-251, 42.1 µM (inactive); with SF-295, 29.4 µM (inactive). For the same compound, the GI50 in the experiment with SF-539 is 20.6 µM (inactive); in the experiment with Hs-578T, 45.1 µM (inactive); with SNB-75, 59.3 µM (inactive); in the experiment on HCT-15, 36.2 µM; in the experiment with CAKI-1, 11.9 µM (inactive); with UO-31 it was 65.6 µM (inactive). The GI50 in the experiment with A498 was 63.4 µM (inactive); in the experiment on SNB-19, 48 µM (inactive); in the experiment with CCRF-CEM, 15 µM (inactive); with RPMI-8226 it was 21.4 µM (inactive); in the experiment with 786-0 it was 36.7 µM (inactive); with SK-OV-3 it was 30.6 µM (inactive).
With `COc1cccc(N2C(=O)/C(=C\c3ccccc3)SC2c2cc(OC)c(OC)c(OC)c2)c1` (stereo not given), the GI50 with BT-549 is 47.9 µM (inactive); with TK-10, > 100 µM (inactive); in the experiment with MOLT-4 it was 27.5 µM (inactive); in the experiment on HT-29, 45.2 µM (inactive); in the experiment on U-251 it was 33.3 µM (inactive); in the experiment with SF-295, 35.5 µM (inactive). Also, the GI50 was 30.4 µM (inactive) in the experiment with Hs-578T; 18 µM (inactive) in the experiment with SNB-75; 44.3 µM with HCT-15; 70 µM (inactive) in the experiment on CAKI-1; 43.2 µM (inactive) in the experiment with UO-31; 28.8 µM (inactive) in the experiment with A498. Besides, the GI50 was 77.6 µM (inactive) in the experiment on SNB-19; 32.3 µM (inactive) with HCC 2998; 37.8 µM (inactive) in the experiment with CCRF-CEM; 32.1 µM (inactive) in the experiment with RPMI-8226; 40.9 µM (inactive) in the experiment on 786-0; 35.6 µM (inactive) in the experiment with SK-OV-3.
For `COc1ccc(C(NCCNC(c2ccc(OC)c(OC)c2)c2cc3c(cc2O)OCO3)c2cc3c(cc2O)OCO3)cc1OC` (stereo not given), the GI50 was 1.72 µM (inactive) in the experiment with RXF 393; 2.12 µM (inactive) in the experiment with BT-549; 4.04 µM (inactive) in the experiment with TK-10; 0.918 µM (active) in the experiment with MOLT-4; 2.64 µM (inactive) in the experiment on HT-29; 2.87 µM (inactive) in the experiment on U-251. Moreover, the GI50 in the experiment on SF-295 was 5.32 µM (inactive); with SF-539, 2.27 µM (inactive); in the experiment on Hs-578T it was 3.24 µM (inactive); in the experiment with SNB-75, 3.56 µM (inactive); in the experiment on HCT-15, 1.85 µM; in the experiment on CAKI-1 it was 2.64 µM (inactive). For the same compound, the GI50 with UO-31 was 2.8 µM (inactive); with A498, 7.45 µM (inactive); with SNB-19, 4.06 µM (inactive); in the experiment with CCRF-CEM it was 0.141 µM (active); with RPMI-8226 it was 2 µM (inactive); in the experiment on 786-0 it was 1.82 µM (inactive). Moreover, in the experiment with SK-OV-3, the GI50 was 6.87 µM (inactive).
Take `COC(CN(C)C(=O)C(C)NC(=O)c1ccccc1)OC` (stereo not given): the GI50 in the experiment on RXF 393, in the experiment with BT-549, in the experiment with TK-10, in the experiment with MOLT-4, with HT-29 and in the experiment with U-251 was > 100 µM (inactive) in each case. In addition, the GI50 was > 100 µM (inactive) with SF-295; > 100 µM (inactive) in the experiment on SF-539; > 100 µM (inactive) in the experiment on Hs-578T; > 100 µM (inactive) with SNB-75; above 100 µM in the experiment with HCT-15; > 100 µM (inactive) in the experiment on CAKI-1. Moreover, the GI50 in the experiment on CCRF-CEM, with RPMI-8226, in the experiment on 786-0 and with SK-OV-3 was > 100 µM (inactive) throughout.
For the compound `C[N+](C)(N)CCC[N+](C)(C)N`, the GI50 with RXF 393, in the experiment on BT-549, in the experiment with TK-10, in the experiment with MOLT-4, in the experiment on HT-29 and in the experiment with U-251 was > 100 µM (inactive) throughout. The GI50 in the experiment with SF-295 is > 100 µM (inactive); in the experiment on SF-539 it was > 100 µM (inactive); in the experiment with Hs-578T it was > 100 µM (inactive); with SNB-75, > 100 µM (inactive); with HCT-15, above 100 µM; in the experiment with CAKI-1 it was > 100 µM (inactive). Also, the GI50 in the experiment on UO-31, in the experiment with A498, in the experiment with SNB-19, in the experiment with CCRF-CEM, with RPMI-8226 and in the experiment on 786-0 was > 100 µM (inactive) each time. The GI50 in the experiment with SK-OV-3 was > 100 µM (inactive).
As for `CC(C)(S)C(N)C(=O)O` (stereo not drawn) [DL-PENICILLAMINE], the GI50 with RXF 393, with BT-549, in the experiment on TK-10, in the experiment with MOLT-4, with HT-29 and in the experiment on U-251 was > 100 µM (inactive) throughout. Besides, the GI50 is > 100 µM (inactive) in the experiment on SF-295; > 100 µM (inactive) in the experiment on SF-539; > 100 µM (inactive) in the experiment on Hs-578T; > 100 µM (inactive) in the experiment on SNB-75; above 100 µM with HCT-15; > 100 µM (inactive) in the experiment on CAKI-1. Moreover, the GI50 in the experiment with A498, in the experiment with SNB-19, in the experiment on RPMI-8226, with 786-0 and in the experiment on SK-OV-3 was > 100 µM (inactive) in each case.
